Reference: patent US12466831B2, “Substituted amino triazolopyrimidine and amino triazolopyrazine adenosine receptor antagonists, pharmaceutical compositions and their use” (Merck Sharp & Dohme LLC, priority 2018, dated 2025)

Experiments:
[1] = biological target: T1, human A2a adenosine receptor (Homo sapiens, UniProt P29274); assay: A2a binding affinity using SPA, Method (B); conditions: Method (B): [3H]SCH58261 SPA, membranes expressing human A2a
T1 construct: purchased Perkin Elmer RBHA2aM400UA; host or cells: HEK293 or CHO cells (recombinant expression)
T1 sequence (P29274 whole entry): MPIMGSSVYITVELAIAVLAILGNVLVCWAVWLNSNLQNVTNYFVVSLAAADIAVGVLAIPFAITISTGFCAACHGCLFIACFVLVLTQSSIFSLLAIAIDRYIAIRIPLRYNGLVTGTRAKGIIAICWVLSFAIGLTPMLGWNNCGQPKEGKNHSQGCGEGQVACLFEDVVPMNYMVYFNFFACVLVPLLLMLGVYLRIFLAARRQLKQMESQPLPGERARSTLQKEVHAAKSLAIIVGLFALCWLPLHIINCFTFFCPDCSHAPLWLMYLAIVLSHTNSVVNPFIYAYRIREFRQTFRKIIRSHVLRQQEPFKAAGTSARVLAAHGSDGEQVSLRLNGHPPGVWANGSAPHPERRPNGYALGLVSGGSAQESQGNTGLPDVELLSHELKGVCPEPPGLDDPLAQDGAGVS
Source text: Method (A) describes the procedure used to measure A2a binding affinity using radioligand binding. Method (B) describes the procedure used to measure A2a binding affinity using SPA technology. The method used to measure A2b binding affinity is also described below. The method used to determine the A2a IC50 value reported for each compound in the table is indicated next to the reported value. The A2b IC50 value measured using the A2b binding affinity assay is shown in the table next to the compound under the corresponding A2a value.
The A2a receptor affinity binding assay measured the amount of binding of a tritiated ligand with high affinity for the A2a adenosine receptor to membranes made from HEK293 or CHO cells recombinantly expressing the human A2a adenosine receptor, in the presence of varying concentrations of a compound of the invention. The data were generated using either filtration binding or a homogenous scintillation proximity assay (SPA).
Method (B): Measurement of A2a Binding Affinity Using SPA
Binding affinity using SPA was conducted as follows. Test compounds (50 nL) were dispensed into individual wells of a 384-well OptiPlate™ well (Perkin Elmer) by Echo® acoustic liquid transfer (Labcyte). 20 μL of 1.25 nM [^3H] SCH58261 ((7-(2-phenylethyl)-5-amino-2-(2-furyl)-pyrazolo-[4,3-e]-1,2,4-triazolo[1,5-c]pyrimidine)) in DPBS assay buffer (Dulbecco's phosphate buffered saline without calcium and magnesium, ThermoFisher Scientific, Cat. No. A1285601) supplemented with 10 mM MgCl2 was added. A2a receptor-expressing membranes were incubated with 20 μg/mL adenosine deaminase (Roche, Cat. No. 10 102 105 001) for 15 minutes at room temperature. The receptor-expressing membranes were then combined with wheat germ agglutinin-coated yttrium silicate SPA beads (GE Healthcare, Cat. No. RPNQ0023) in a ratio of […] (w/w) and incubated for 30 minutes at room temperature. 30 μL of the membrane/bead mixture (0.25 μg and 25 μg per well respectively) were added to the 384-well OptiPlate™ well. To define total and non-specific binding, wells containing 1% DMSO or 1 μM CGS15943 (Tocris Bioscience, Cat. No. 1699) respectively were also included in the experiment. The plate was incubated for one hour at room temperature with agitation. The assay plate was then incubated for an hour to allow the beads to settle before data were collected using a TopCount® (Perkin Elmer) scintillation counter. After normalization to total and non-specific binding, the percent effect at each compound concentration was calculated. The plot of percent effect versus the log of compound concentration was analyzed electronically using a 4-parameter logistic fit based on the Levenberg-Marquardt algorithm to generate IC50 values.

[2] = biological target: T2, human A2b adenosine receptor (Homo sapiens, UniProt P29275); assay: A2b binding affinity, radioligand filtration binding assay; conditions: tritiated proprietary A2b antagonist, HEK293 membranes expressing human A2b
T2 construct: purchased Perkin Elmer ES-013-C; host or cells: HEK293 cells recombinantly expressing the receptor; membranes made from them
T2 sequence (P29275 1-332): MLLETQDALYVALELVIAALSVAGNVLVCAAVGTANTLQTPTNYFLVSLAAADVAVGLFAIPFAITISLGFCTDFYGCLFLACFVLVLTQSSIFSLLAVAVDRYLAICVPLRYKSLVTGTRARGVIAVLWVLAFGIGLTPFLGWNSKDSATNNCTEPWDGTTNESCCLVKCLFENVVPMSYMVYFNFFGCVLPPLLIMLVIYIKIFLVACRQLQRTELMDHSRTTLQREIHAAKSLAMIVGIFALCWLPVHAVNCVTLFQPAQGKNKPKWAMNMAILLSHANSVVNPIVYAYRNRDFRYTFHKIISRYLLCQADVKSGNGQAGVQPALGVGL
In short: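 Membranes from HEK293 cells expressing human A2b were preincubated with compound 15–30 min at room temperature, then incubated 60 min at room temperature with a tritiated proprietary A2b antagonist in PBS pH 7.4 without Mg/Ca. Non-specific binding defined with 20 μM NECA; filter-bound radioactivity counted and IC50 fitted by 4-parameter logistic.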

[3] = biological target: T1, human A2a adenosine receptor; assay: A2a binding affinity using radioligand binding, Method (A); conditions: Method (A): [3H]SCH58261 filtration binding, membranes expressing human A2a
In short: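 Filtration binding used human A2a membranes from HEK293 or CHO cells, preincubated with compound 15–30 min. [3H]SCH58261 (diluted to 4 nM) was then added in Tris pH 7.4, MgCl2, Tween20 buffer, with 60 min at room temperature. Non-specific binding was defined by 1 μM ZM241385, and IC50 came from a 4-parameter logistic fit.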

Nc1nc(-c2ccccc2)cc2nc([C@@H]3CCCN(CC(F)F)C3)nn12 [Example 9.2, (R)-2-(1-(2,2-difluoroethyl)piperidin-3-yl)-7-phenyl-[1,2,4]triazolo[1,5-c]pyrimidin-5-amine] gave an IC50 [1] of 10.9 nM.

C=C(C)c1c(-c2ccccc2)nc(N)n2nc([C@@H]3CCCN(CC(F)(F)F)C3)nc12 [Example 7.3, (R)-7-phenyl-8-(prop-1-en-2-yl)-2-(1-(2,2,2-trifluoroethyl)piperidin-3-yl)-[1,2,4]triazolo[1,5-c]pyrimidin-5-amine] was tested, and the IC50 [1] was 65.8 nM.

For Nc1nc(-c2ccccc2)c(C2CC2)c2nc([C@@H]3CCCN(CC(F)(F)F)C3)nn12 [Example 5.5, (R)-8-cyclopropyl-7-phenyl-2-(1-(2,2,2-trifluoroethyl)piperidin-3-yl)-[1,2,4]triazolo[1,5-c]pyrimidin-5-amine], the IC50 [1] was 81.7 nM.

Compound Cc1c(-c2ncco2)nc(N)c2nc(C3(c4ncccc4F)CC3)nn12 [Example 2.7, 2-(1-(3-fluoropyridin-2-yl)cyclopropyl)-5-methyl-6-(oxazol-2-yl)-[1,2,4]triazolo[1,5-a]pyrazin-8-amine] has an IC50 [2] of 2910 nM and an IC50 [3] of 56.4 nM.

Cc1c(-c2ncco2)nc(N)n2nc(C3CCN(c4cnn(CC(C)(C)O)c4)C3)nc12 (single isomer, unassigned) [Example 3.15-2, (R or S)-1-(4-(3-(5-amino-8-methyl-7-(oxazol-2-yl)-[1,2,4]triazolo[1,5-c]pyrimidin-2-yl)pyrrolidin-1-yl)-1H-pyrazol-1-yl)-2-methylpropan-2-ol] gave an IC50 [2] of 9090 nM and an IC50 [3] of 435 nM.

CC(C)(O)c1c(-c2ccccc2)nc(N)n2nc([C@@H]3CCCN(CC(F)(F)F)C3)nc12 [Example 6.5, (R)-2-(5-amino-7-phenyl-2-(1-(2,2,2-trifluoroethyl)piperidin-3-yl)-[1,2,4]triazolo[1,5-c]pyrimidin-8-yl)propan-2-ol] was tested, and the IC50 [1] was 1030 nM.

For Cc1c(-c2cccc(F)c2)nc(N)c2nc(C3CCC(C)(O)C3)nn12 (single isomer, unassigned) [Example 8.8, (1R,3S and 1S,3R) or (1R,3R and 1S,3S)-3-(8-amino-6-(3-fluorophenyl)-5-methyl-[1,2,4]triazolo[1,5-a]pyrazin-2-yl)-1-methylcyclopentan-1-ol], the IC50 [2] was 350 nM and the IC50 [3] was 70.5 nM.

Compound CCn1cc(N2C[C@H](c3nc4c(C)c(-c5cccc(F)c5)nc(N)n4n3)CC[C@@H]2C)cn1 [Example 2.16, 2-((3R,6S)-1-(1-ethyl-1H-pyrazol-4-yl)-6-methylpiperidin-3-yl)-7-(3-fluorophenyl)-8-methyl-[1,2,4]triazolo[1,5-c]pyrimidin-5-amine] has an IC50 [2] of 82.6 nM and an IC50 [3] of 8.8 nM.

In the case of Cc1c(-c2ncco2)nc(N)c2nc(C3CCCC(C)(O)C3)nn12 (single isomer, unassigned) [Example 8.5, (1R,3S and 1S,3R) or (1R,3R and 1S,3S)-(8-amino-5-methyl-6-(oxazol-2-yl)-[1,2,4]triazolo[1,5-a]pyrazin-2-yl)-1-methylcyclohexan-1-ol], the IC50 [2] is reported as 9140 nM and the IC50 [3] is reported as 265 nM.
